Data set [1] in a line: Haldol in urine samples after hydrolysis with a betaglucuronidase enzyme. The data set is classed as in vivo, human.
A short description of data set [2]: Haldol in urine samples before hydrolysis. The data set is classed as in vivo, human. Conditions: Without Hydrolysis; summary of Table 1, N 151.
Where [3] appears, read: With hydrolysis, summary of Table 1, N 151.

In data set [1] (setting [3]), `O=C(CCCN1CCC(O)(c2ccc(Cl)cc2)CC1)c1ccc(F)cc1` [Haldol, Haloperidol] yielded an Avg of 982.5, a Max of 16805.6 and a Min of 0.0. The “amount of Haldol determined in urine samples post hydrolysis versus before” value in data set [1] (human urine, betaglucuronidase hydrolysis) is on record as “increased post hydrolysis”. In data set [2], this compound displayed an Avg of 30.7, a Max of 414.0 and a Min of 0.0.

For the origin of these results see patent US20170029866A1 (Ameritox, Ltd, priority 2015, published 2017).
